Patent US10421774B2 (priority 2016, dated 2019)

Assays:
Assay in all cases: microbe, parasite or virus in culture
Assay type in all cases: cell-based, HIV-1
[1] = system: T332S/V362I/Pr R41G virus; conditions: Human immunodeficiency virus 1, MT2, read-out: T332S/V362I/pr41G EC50
Procedure: (§1) Cells. MT-2 cells and 293T cells were obtained from the NIH AIDS Research and Reference Reagent Program. Cell lines were sub-cultured twice a week in either RPMI 1640 (MT-2) or DMEM (293T, HeLa) media supplemented with 10% heat inactivated fetal bovine serum (FBS), 100 units/mL of penicillin G and 100 μg/mL of streptomycin. The DMEM medium was additionally supplemented with 10 mM HEPES buffer, pH 7.55, 2 mM L-glutamine and 0.25 μg/mL of amphotericin B.
(§2) Viruses. NLRepRluc virus contains the Renilla luciferase marker in place of the viral nef gene. The proviral plasmid pNLRepRluc was constructed at Bristol-Myers Squibb, starting from a proviral NL4-3 clone (B subtype) that was obtained from the NIH AIDS Research and Reference Reagent Program. The parental recombinant wild type (WT) virus (NLRepRlucP373S) was derived from NLRepRluc and contains the additional substitution of P373 for serine in Gag (within the SP1 spacer), the most common 373 variation in subtype B. Other recombinant viruses (A364V, V370A/ΔT371 and the “T3325 triple” (T332S/V362I+HIV-1 protease R41G)) were generated by site-directed mutagenesis of plasmid pNLRepRlucP373S to introduce those amino acid substitutions in Gag and protease. Recombinant virus DNA was then used to generate virus stocks by transfection of 293T cells (Lipofectamine PLUS kit, Invitrogen). Titers of virus stocks were determined using a luciferase assay (Dual-Luciferase® Reporter Assay System, Promega, Milwaukee, Wis., USA) endpoint.
(§3) Multiple cycle drug susceptibility assay. Pellets of MT-2 cells were infected with NLRepRlucP373S Gag site-directed viruses, where initial inocula of the reporter strains were normalized using equivalent endpoint luciferase activity signals. Such cell-virus mixtures were resuspended in medium, incubated for 1-hour at 37° C./CO2, and added to compound containing 96-well plates at a final cell density of 10,000 cells per well. The test compounds were 3-fold serially diluted in 100% DMSO, and assayed at a final DMSO concentration of 1%. After 4-5 day incubation at 37° C./CO2, virus yields were determined by Renilla luciferase activity (Dual-Luciferase® Reporter Assay System, Promega). The endpoint luminescence was detected on a Wallac Trilux (PerkinElmer).
T332sN362I/Pr R41G (N14.3, B Clade) virus′ was obtained as follows: Selection for resistance of HIV-1 strain […] virus with the HIV maturation inhibitor (MI) compound
At passage 8 virus was harvested and sequenced.
(§4) All three recombinant viruses were used as described above in the HIV cell culture assay for the NL4-3 virus.

[2] = system: NLRepRlucP373S recombinant wild type (WT) virus; conditions: Human immunodeficiency virus 1, MT2, read-out: WT EC50
Procedure: as §1, §2, §3
(§5) The 50% inhibitory concentrations (EC50S) were calculated by using the exponential form of the median effect equation where Percent Inhibition=1/[1+(EC50/drug conc.^m], where m is a parameter that reflects the slope of the concentration-response curve. Background was taken as the residual signal observed upon inhibition at the highest concentration of a control protease inhibitor, NFV (3 μM).
as §5, with “The 90%” for “The 50%”, “concentrations (EC90S)” for “concentrations (EC50S)”, “where ECF=[(F/(100−F)]^1/H·EC50,” for “where Percent Inhibition=1/[1+(EC50/drug conc.^m],”, “where H” for “where m”

[3] = system: A364V site directed mutant virus; conditions: Human immunodeficiency virus 1, MT2, read-out: A364V EC50
Procedure: as §1, §2, §3
(§6) HIV-1 NL4-3 expressing Renilla luciferase gene was converted to the gag V370A/ΔT371 virus by site directed mutagenesis. A364V is a site directed mutant.
as §4

gag V370A/ΔT371 virus = conditions: Human immunodeficiency virus 1, MT2, read-out: V370A/ΔT371 EC50
Procedure: as §1, §2, §3, §6, §4

| SMILES | EC50 [1] [µM] | EC50 [2] [µM] | EC50 [3] [µM] | EC50 (gag V370A/ΔT371 virus) [µM] |
| --- | --- | --- | --- | --- |
| C=C(C)[C@@H]1CC[C@]2(NCCN3CCS(=O)(=O)CC3)CC[C@]3(C)[C@H](CC[C@@H]4[C@@]5(C)CC=C(C6=CCC(COc7ccccn7)(C(=O)O)CC6)C(C)(C)[C@@H]5CC[C@]43C)[C@@H]12 (stereo partly shown) [Example 1] | 0.014 | 0.003 | 0.011 | 0.017 |
| C=C(C)[C@@H]1CC[C@]2(NCCN3CCS(=O)(=O)CC3)CC[C@]3(C)[C@H](CC[C@@H]4[C@@]5(C)CC=C(C6=CCC(COc7cc(-c8ccccc8)nn7C)(C(=O)O)CC6)C(C)(C)[C@@H]5CC[C@]43C)[C@@H]12 (stereo partly drawn) [Example 2, 4-((1R,3aS,5aR,5bR,7aR,11aS,11bR,13aR,13bR)-3a-((2-(1,1-dioxidothiomorpholino)ethyl)amino)-5a,5b,8,8,11a-pentamethyl-1-(prop-1-en-2-yl)-2,3,3a,4,5,5a,5b,6,7,7a,8,11,11a,11b,12,13,13a,13b-octadecahydro-1H-cyclopenta[a]chrysen-9-yl)-1-(((1-methyl-3-phenyl-1H-pyrazol-5-yl)oxy)methyl)cyclohex-3-ene-1-carboxylic acid] | 3 | 3 | 1.94 |  |
| C=C(C)[C@@H]1CC[C@]2(NCCN3CCS(=O)(=O)CC3)CC[C@]3(C)[C@H](CC[C@@H]4[C@@]5(C)CC=C(C6=CCC(COc7cc(C(F)(F)F)n(C)n7)(C(=O)O)CC6)C(C)(C)[C@@H]5CC[C@]43C)[C@@H]12 (stereo partly shown) [Example 3] | 2.17 | 0.009 | 2.22 |  |
| C=C(C)[C@@H]1CC[C@]2(NCCN3CCS(=O)(=O)CC3)CC[C@]3(C)[C@H](CC[C@@H]4[C@@]5(C)CC=C(C6=CCC(COc7nc(C(=O)O)cs7)(C(=O)O)CC6)C(C)(C)[C@@H]5CC[C@]43C)[C@@H]12 (stereo partly drawn) [Example 4, 2-((1-carboxy-4-((1R,3aS,5aR,5bR,7aR,11aS,11bR,13aR,13bR)-3a-((2-(1,1-dioxidothiomorpholino)ethyl)amino)-5a,5b,8,8,11a-pentamethyl-1-(prop-1-en-2-yl)-2,3,3a,4,5,5a,5b,6,7,7a,8,11,11a,11b,12,13,13a,13b-octadecahydro-1H-cyclopentatalchrysen-9-yl)cyclohex-3-en-1-yl)methoxy)thiazole-4-carboxylic acid] | > 0.05 | > 0.05 | > 0.05 | > 0.05 |
| C=C(C)[C@@H]1CC[C@]2(NCCN3CCS(=O)(=O)CC3)CC[C@]3(C)[C@H](CC[C@@H]4[C@@]5(C)CC=C(C6=CCC(COc7nsnc7C)(C(=O)O)CC6)C(C)(C)[C@@H]5CC[C@]43C)[C@@H]12 (stereo partly drawn) [Example 5, 4-((1R,3aS,5aR,5bR,7aR,11aS,11bR,13aR,13bR)-3a-((2-(1,1-dioxidothiomorpholino)ethyl)amino)-5a,5b,8,8,11a-pentamethyl-1-(prop-1-en-2-yl)-2,3,3a,4,5,5a,5b,6,7,7a,8,11,11a,11b,12,13,13a,13b-octadecahydro-1H-cyclopenta[a]chrysen-9-yl)-1-(((4-methyl-1,2,5-thiadiazol-3-yl)oxy)methyl)cyclohex-3-ene-1-carboxylic acid] | 0.015 | 0.003 | 0.015 | 0.015 |
| C=C(C)[C@@H]1CC[C@]2(NCCN3CCS(=O)(=O)CC3)CC[C@]3(C)[C@H](CC[C@@H]4[C@@]5(C)CC=C(C6=CCC(COc7cnsn7)(C(=O)O)CC6)C(C)(C)[C@@H]5CC[C@]43C)[C@@H]12 (stereo partly drawn) [Example 6, 1-(((1,2,5-thiadiazol-3-yl)oxy)methyl)-4-((1R,3aS,5aR,5bR,7aR,11aS,11bR,13aR,13bR)-3a-((2-(1,1-dioxidothiomorpholino)ethyl)amino)-5a,5b,8,8,11a-pentamethyl-1-(prop-1-en-2-yl)-2,3,3a,4,5,5a,5b,6,7,7a,8,11,11a,11b,12,13,13a,13b-octadecahydro-1H-cyclopenta[a]chrysen-9-yl)cyclohex-3-ene-1-carboxylic acid] | < 0.05 | < 0.05 | > 0.05 | < 0.05 |
| C=C(C)[C@@H]1CC[C@]2(NCCN3CCS(=O)(=O)CC3)CC[C@]3(C)[C@H](CC[C@@H]4[C@@]5(C)CC=C(C6=CCC(COc7cnnn7CC)(C(=O)O)CC6)C(C)(C)[C@@H]5CC[C@]43C)[C@@H]12 (stereo partly shown) [Example 7] | 0.192 | 0.002 | 0.095 | 0.192 |
| C=C(C)[C@@H]1CC[C@]2(NCCN3CCS(=O)(=O)CC3)CC[C@]3(C)[C@H](CC[C@@H]4[C@@]5(C)CC=C(C6=CCC(COc7nsc8ccccc78)(C(=O)O)CC6)C(C)(C)[C@@H]5CC[C@]43C)[C@@H]12 (stereo partly shown) [Example 8] | < 0.05 | < 0.05 | < 0.05 | < 0.05 |
| C=C(C)[C@@H]1CC[C@]2(NCCN3CCS(=O)(=O)CC3)CC[C@]3(C)[C@H](CC[C@@H]4[C@@]5(C)CC=C(C6=CCC(COc7ccncc7)(C(=O)O)CC6)C(C)(C)[C@@H]5CC[C@]43C)[C@@H]12 (stereo partly drawn) [Example 9, 4-((1R,3aS,5aR,5bR,7aR,11aS,11bR,13aR,13bR)-3a-((2-(1,1-dioxidothiomorpholino)ethyl)amino)-5a,5b,8,8,11a-pentamethyl-1-(prop-1-en-2-yl)-2,3,3a,4,5,5a,5b,6,7,7a,8,11,11a,11b,12,13,13a,13b-octadecahydro-1H-cyclopenta[a]chrysen-9-yl)-1-((pyridin-4-yloxy)methyl)cyclohex-3-ene-1-carboxylic acid] | 0.014 | 0.002 | 0.035 |  |
| C=C(C)[C@@H]1CC[C@]2(NCCN3CCS(=O)(=O)CC3)CC[C@]3(C)[C@H](CC[C@@H]4[C@@]5(C)CC=C(C6=CCC(COc7cccnc7)(C(=O)O)CC6)C(C)(C)[C@@H]5CC[C@]43C)[C@@H]12 (stereo partly drawn) [Example 10, 4-((1R,3aS,5aR,5bR,7aR,11aS,11bR,13aR,13bR)-3a-((2-(1,1-dioxidothiomorpholino)ethyl)amino)-5a,5b,8,8,11a-pentamethyl-1-(prop-1-en-2-yl)-2,3,3a,4,5,5a,5b,6,7,7a,8,11,11a,11b,12,13,13a,13b-octadecahydro-1H-cyclopenta[a]chrysen-9-yl)-1-((pyridin-3-yloxy)methyl)cyclohex-3-enecarboxylic acid] | 0.006 | 0.002 | 0.027 |  |
| C=C(C)[C@@H]1CC[C@]2(NCCN3CCC(S(C)(=O)=O)CC3)CC[C@]3(C)[C@H](CC[C@@H]4[C@@]5(C)CC=C(C6=CCC(COc7cccnc7)(C(=O)O)CC6)C(C)(C)[C@@H]5CC[C@]43C)[C@@H]12 (stereo partly drawn) [Example 11, 4-((1R,3aS,5aR,5bR,7aR,11aS,11bR,13aR,13bR)-5a,5b,8,8,11a-pentamethyl-3a-((2-(4-(methylsulfonyl)piperidin-1-yl)ethyl)amino)-1-(prop-1-en-2-yl)-2,3,3a,4,5,5a,5b,6,7,7a,8,11,11a,11b,12,13,13a,13b-octadecahydro-1H-cyclopenta[a]chrysen-9-yl)-1-((pyridin-3-yloxy)methyl)cyclohex-3-enecarboxylic acid] | 0.008 | 0.002 | 0.018 |  |
| C=C(C)[C@@H]1CC[C@]2(NCCN3CCS(=O)(=O)CC3)CC[C@]3(C)[C@H](CC[C@@H]4[C@@]5(C)CC=C(C6=CCC(COc7cc(C)sn7)(C(=O)O)CC6)C(C)(C)[C@@H]5CC[C@]43C)[C@@H]12 (stereo partly shown) [Example 12] | < 0.05 | < 0.05 | < 0.05 | < 0.05 |
